“Also recorded” adds a separate entry of the source.
System: Stargardt disease patients
Test: TEASE-1: growth rate of atrophic retinal lesions by fundus autofluorescence imaging
Assay type: in vivo, human
Design: Percentage Slowing of Atrophic Retinal Lesion Growth Rate With Gildeuretinol Acetate: concentration or dose not given beside the values
Conditions: for effect on retinal degeneration / growth of atrophic retinal lesions (in words): 14 to 24 mg daily, up to 24 months, vs placebo and natural history
Protocol: The Tolerability and Effects of gildeuretinol acetate in Stargardt Disease (Clinical trial group 1 also known as TEASE-1) was a 24-month, multicenter, double-masked, placebo-controlled trial designed to evaluate the efficacy and safety of daily oral gildeuretinol acetate in slowing the growth of atrophic retinal lesions in Stargardt disease patients. The trial was conducted at multiple sites in the United States (NCT02402660).
Patients 12 years or older, clinically diagnosed with Stargardt disease, with at least one ABCA4 mutation, at least one eye presenting with well-demarcated areas of reduced fundus autofluorescence, and with any visual acuity, were eligible.
Patients were randomized to gildeuretinol acetate 14 mg capsules, gildeuretinol acetate 24 mg capsules, or placebo capsules, to be taken once daily for one year. After one year, 50% of randomly selected patients receiving placebo were crossed over in a 1:1 ratio to gildeuretinol acetate 14 mg capsules or gildeuretinol acetate 24 mg capsules for a second year.
Gildeuretinol acetate and placebo capsules were identical appearing capsules. Patients were advised to avoid vitamin A-containing supplements and liver-based products. Fruits and vegetables contain beta-carotene, not preformed vitamin A, and could be consumed without limitation. Trial visits occurred at 8 weeks and 6, 12, 18, and 24 months following screening and randomization.
Deidentified retinal images of patients not enrolled in the trial were included as a natural history cohort. This natural history cohort comprised patients diagnosed with Stargardt disease of any age, with two or more longitudinal fundus autofluorescence images taken at least four months apart over a maximum period of 2.5 years.
The prespecified primary efficacy endpoint was the growth rate of the square root area of atrophic retinal lesions measured by fundus autofluorescence retinal imaging comparing gildeuretinol versus the untreated arm (placebo combined with natural history). Only well-delineated and homogeneous retinal atrophic lesions≥0.2 mm^2 with a summed area≥0.5 mm^2 were included in the primary analysis.
The primary endpoint analysis used a linear mixed-effect model (LMEM) with repeated measures, conferring a higher power to detect smaller effects. All observed data, including both eyes, were utilized. Treatment duration was computed as a continuous measure for each visit based on years since randomization. Adjustments for baseline retinal atrophy used the baseline atrophic retinal lesion size as a fixed effect in the LMEM. Additional fixed effects included treatment arm, treatment duration, and interaction between the treatment arm and treatment duration. Random effects included patient, eye, grader to adjust for correlation between eyes within a patient, graders' assessment of an eye, and observations of the same eye over time. A random effect slope term was added to the effect of treatment duration. Patients who crossed over to gildeuretinol acetate after year one were included in the untreated arm from baseline to year one, then in the gildeuretinol acetate arm from […] upon crossing over to gildeuretinol acetate. The full analysis set (FAS) comprised all randomized patients who received at least one dose of the study drug.
Growth rates of atrophic retinal lesions were computed as two segmented lines over the 24-month treatment period; the first segment was between 0 and 6 months, and the second was between 6 and 24 months. All available data between 0 and 24 months was used to compute the slope of each segment. The primary efficacy endpoint was the slope of the second segment. No constraints were imposed on the Y-intercept. All growth rates were calculated on a per-year basis.
No imputations were made for missing data because the LMEM yields valid inferences under the assumption of a missing-at-random mechanism. […]

In the case of `CC(=O)OC/C=C(C)/C=C/C=C(C)/C=C/C1=C(C)CCCC1(C)C` [gildeuretinol acetate, C20-D3-retinol acetate], the “effect on retinal degeneration / growth of atrophic retinal lesions (in words)” value was “met its prespecified primary efficacy endpoint, slowing the mean growth rate of atrophic retinal lesions relative to placebo and natural history; also recorded: slowed the expansion of retinal atrophic lesions; also recorded: slowed the progression of retinal degeneration; also recorded: slows retinal degeneration”, the “effect on retinal degeneration / growth of atrophic retinal lesions (in words)” value (listed as Gildeuretinol acetate) was “met its prespecified primary efficacy endpoint, slowing the mean growth rate of atrophic retinal lesions” and the “Percentage Slowing of Atrophic Retinal Lesion Growth Rate With Gildeuretinol Acetate” value (“Percentage Slowing” below) (crossover patients: 12 months placebo vs. 12 months treatment) was 21%. For the same compound, the “estimated treatment effect (slowing of atrophic retinal lesion growth)” value (depending on the calculation method) was 20% to 30, the “Percentage Slowing” value (excluding 2 natural history cases < 18 years old, 9 natural histories > 60 years old) was 21% and the “Percentage Slowing” value (excluding 3 randomized patients with one confirmed mutation) was 20%. The “Percentage Slowing” value (excluding 13 natural history cases without any confirmed ABCA4 mutations and 6 with one confirmed mutation) was 20%, the “Percentage Slowing” value (excluding 16 natural histories with only two follow up time points) was 20% and the “Percentage Slowing” value (excluding natural history, randomized patients only, one slope (mm^2)) was 30%. For the same compound, the “Percentage Slowing” value (excluding natural history, randomized patients only, two slopes (mm^2)) was 23%, the “growth rate of atrophic retinal lesions” value (gildeuretinol acetate arm (14 mg and 24 mg pooled), square root area, slope 6 to 24 months) was 0.19 mm/year and the “Percentage Slowing” value (using a single-slope from 0 to 24 months (mm^2)) was 31%. For the same compound, the “Percentage Slowing” value (using untransformed areas of atrophic lesions (mm^2)) was 28% and the “difference in growth rate of atrophic retinal lesions versus control” value (vs placebo + natural history, 95% CI 0.03 to 0.07) was 0.05 mm/year.
